In the test the target is T1, human full-length MKNK1 (Homo sapiens, UniProt Q9BUB5, T385D).
T1 construct: GST (N); purchased Carna Biosciences 02-145; host or cells: insect cells (baculovirus expression system)
Kind of test: MKNK1 kinase high ATP assay (TR-FRET). Format: biochemical. The settings on record: high ATP (2 mM final), 15 min preincubation with enzyme, GST-MKNK1 (T344D). In short, it runs like this: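 GST-tagged human full-length MKNK1 (T344D), insect-cell expressed, preincubated 15 min at 22 °C with compound, then reacted 30 min at 22 °C with 2 mM ATP and 0.06 μM biotinylated peptide (final) in HEPES pH 7.5. Phospho-peptide detected by TR-FRET (665/620 nm ratio) after EDTA stop; normalised to no-inhibitor and no-enzyme controls.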
A general note: TR-FRET usually uses a lanthanide donor and a delayed reading to cut background.

A word on the IC50: it is the concentration that gives 50% inhibition.

SMILES strings stand for the structures.

T1 sequence (Q9BUB5 1-424 isoform Q9BUB5-2 T344D): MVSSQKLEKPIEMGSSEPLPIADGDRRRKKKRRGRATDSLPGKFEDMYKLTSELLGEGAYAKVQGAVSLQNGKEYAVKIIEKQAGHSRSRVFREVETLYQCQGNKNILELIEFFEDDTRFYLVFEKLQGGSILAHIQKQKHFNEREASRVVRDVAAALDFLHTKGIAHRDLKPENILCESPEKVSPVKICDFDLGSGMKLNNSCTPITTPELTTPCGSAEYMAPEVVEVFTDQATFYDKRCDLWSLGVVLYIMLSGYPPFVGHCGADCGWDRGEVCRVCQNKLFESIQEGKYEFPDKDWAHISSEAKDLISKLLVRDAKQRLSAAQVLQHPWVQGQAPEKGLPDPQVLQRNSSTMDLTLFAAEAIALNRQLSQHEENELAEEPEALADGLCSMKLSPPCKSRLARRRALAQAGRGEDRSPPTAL

The compound `COc1cc2[nH]ncc2cc1Nc1ncnc2sc3c(c12)CCN(C(=O)c1ccc(Cl)n1C)C3` [Example 76, (5-Chloro-1-methyl-1H-pyrrol-2-yl){4-[(6-methoxy-1H-indazol-5-yl)amino]-5,8-dihydropyrido[4′,3′:4,5]thieno[2,3-d]pyrimidin-7(6H)-yl}methanone] had an IC50 of 10 nM. With `CN1CCC(C(=O)N2CCc3c(sc4ncnc(Nc5cc6cn[nH]c6cn5)c34)C2)CC1` [Example 77, (1-Methylpiperidin-4-yl)[4-(1H-pyrazolo[3,4-c]pyridin-5-ylamino)-5,8-dihydropyrido[4′,3′:4,5]thieno[2,3-d]pyrimidin-7(6H)-yl]methanone], the midpoint of inhibition, the IC50, lay at 28 nM. In the case of `CCOCCN(C)C(=O)N1CCc2c(sc3ncnc(Nc4cc5cn[nH]c5cc4OC)c23)C1` [Example 78, N-(2-Ethoxyethyl)-4-[(6-methoxy-1H-indazol-5-yl)amino]-N-methyl-5,8-dihydropyrido[4′,3′:4,5]thieno[2,3-d]pyrimidine-7(6H)-carboxamide] it was 1020 nM. In the case of `CN1CCC(C(=O)N2CCc3c(sc4ncnc(Nc5ccn6nccc6c5)c34)C2)CC1` [Example 79, (1-Methylpiperidin-4-yl)[4-(pyrazolo[1,5-a]pyridin-5-ylamino)-5,8-dihydropyrido[4′,3′:4,5]thieno[2,3-d]pyrimidin-7(6H)-yl]methanone] it was 188 nM; in that of `COc1cc2[nH]ncc2cc1Nc1ncnc2sc3c(c12)CCN(Cc1ncon1)C3` [Example 80, N-(6-Methoxy-1H-indazol-5-yl)-7-(1,2,4-oxadiazol-3-ylmethyl)-5,6,7,8-tetrahydropyrido[4′,3′:4,5]thieno[2,3-d]pyrimidin-4-amine], 17 nM; in that of `COc1cc2[nH]ncc2cc1Nc1ncnc2sc3c(c12)CCN(C(=O)c1cocn1)C3` [Example 81, {4-[(6-Methoxy-1H-indazol-5-yl)amino]-5,8-dihydropyrido[4′,3′:4,5]thieno[2,3-d]pyrimidin-7(6H)-yl}(1,3-oxazol-4-yl)methanone], 5 nM.

Regarding `COc1cc2[nH]ncc2cc1NCCN(C)C(=O)N1CCc2c(sc3ncnc(Nc4cc5cn[nH]c5cc4OC)c23)C1` [Example 82, 4-[(6-Methoxy-1H-indazol-5-yl)amino]-N-{2-[(6-methoxy-1H-indazol-5-yl)amino]ethyl}-N-methyl-5,8-dihydropyrido[4′,3′:4,5]thieno[2,3-d]pyrimidine-7(6H)-carboxamide], the IC50 was determined as 48 nM.

Regarding `COc1cc2[nH]ncc2cc1Nc1ncnc2sc3c(c12)CCN(CCCN1CCNC1=O)C3` [Example 83, 1-(3-{4-[(6-Methoxy-1H-indazol-5-yl)amino]-5,8-dihydropyrido[4′,3′:4,5]thieno[2,3-d]pyrimidin-7(6H)-yl}propyl)imidazolidin-2-one], the IC50 was determined as 15 nM. This IC50 is about 3.2-fold lower than that of the compound before.

In turn, `COc1cc2[nH]ncc2cc1Nc1ncnc2sc3c(c12)CCN(CCCn1cccc1)C3` [Example 84, N-(6-Methoxy-1H-indazol-5-yl)-7-[3-(1H-pyrrol-1-yl)propyl]-5,6,7,8-tetrahydropyrido[4′,3′:4,5]thieno[2,3-d]pyrimidin-4-amine] yielded an IC50 of 8 nM.

`COc1cc2[nH]ncc2cc1Nc1ncnc2sc3c(c12)CCN(CCN1CCCC1=O)C3` [Example 85, 1-(2-{4-[(6-Methoxy-1H-indazol-5-yl)amino]-5,8-dihydropyrido[4′,3′:4,5]thieno[2,3-d]pyrimidin-7(6H)-yl}ethyl)pyrrolidin-2-one] had an IC50 of 10 nM. This IC50 and that of the compound before are within 1.5-fold of each other. For the compound `COc1cc2[nH]ncc2cc1Nc1ncnc2sc3c(c12)CCN(CCCN1CCCC1=O)C3` [Example 86, 1-(3-{4-[(6-Methoxy-1H-indazol-5-yl)amino]-5,8-dihydropyrido[4′,3′:4,5]thieno[2,3-d]pyrimidin-7(6H)-yl}propyl)pyrrolidin-2-one], the IC50 came out at 12 nM.

`COc1cc2[nH]ncc2cc1Nc1ncnc2sc3c(c12)CCN(CCCN1CCOCC1=O)C3` [Example 87, 4-(3-{4-[(6-Methoxy-1H-indazol-5-yl)amino]-5,8-dihydropyrido[4′,3′:4,5]thieno[2,3-d]pyrimidin-7(6H)-yl}propyl)morpholin-3-one]: the IC50 came to 16 nM. This IC50 and that of the compound before are within 1.5-fold of each other.

Regarding `COc1cc2[nH]ncc2cc1Nc1ncnc2sc3c(c12)CCN(Cc1cc(C(=O)N(C)C)no1)C3` [Example 88, 5-({4-[(6-Methoxy-1H-indazol-5-yl)amino]-5,8-dihydropyrido[4′,3′:4,5]thieno[2,3-d]pyrimidin-7(6H)-yl}methyl)-N,N-dimethyl-1,2-oxazole-3-carboxamide], the IC50 is 9 nM.

Regarding `COc1cc2[nH]ncc2cc1Nc1ncnc2sc3c(c12)CCN(CCCN1C[C@@H](C)O[C@@H](C)C1)C3` [Example 89, 7-{3-[(2R,6S)-2,6-Dimethylmorpholin-4-yl]propyl}-N-(6-methoxy-1H-indazol-5-yl)-5,6,7,8-tetrahydropyrido[4′,3′:4,5]thieno[2,3-d]pyrimidin-4-amine], 3 nM corresponded to half-maximal inhibition (IC50). `COc1cc2[nH]ncc2cc1Nc1ncnc2sc3c(c12)CCN(CCCN1CCOCC1)C3` [Example 90, N-(6-Methoxy-1H-indazol-5-yl)-7-[3-(morpholin-4-yl)propyl]-5,6,7,8-tetrahydropyrido[4′,3′:4,5]thieno[2,3-d]pyrimidin-4-amine] registered an IC50 of 4 nM. Turning to `COc1cc2[nH]ncc2cc1Nc1ncnc2sc3c(c12)CCN(C(=O)C1CCCC1)C3` [Example 91, Cyclopentyl{4-[(6-methoxy-1H-indazol-5-yl)amino]-5,8-dihydropyrido[4′,3′:4,5]thieno[2,3-d]pyrimidin-7(6H)-yl}methanone], it took 3 nM to reach half-maximal inhibition (IC50). In the case of `COc1cc2[nH]ncc2cc1Nc1ncnc2sc3c(c12)CCN(C(=O)C1CCCCC1)C3` [Example 92, Cyclohexyl{4-[(6-methoxy-1H-indazol-5-yl)amino]-5,8-dihydropyrido[4′,3′:4,5]thieno[2,3-d]pyrimidin-7(6H)-yl}methanone] it was 3 nM; in that of `COc1cc2[nH]ncc2cc1Nc1ncnc2sc3c(c12)CCN(C(=O)N1[C@H](C)COC[C@H]1C)C3` [Example 93, [(3R,5R)-3,5-Dimethylmorpholin-4-yl]{4-[(6-methoxy-1H-indazol-5-yl)amino]-5,8-dihydropyrido[4′,3′:4,5]thieno[2,3-d]pyrimidin-7(6H)-yl}methanone], 4 nM. In the case of `COc1cc2[nH]ncc2cc1Nc1ncnc2sc3c(c12)CCN(C(=O)N1C[C@H](C)O[C@@H](C)C1)C3` [Example 94, [(2S,6S)-2,6-Dimethylmorpholin-4-yl]{4-[(6-methoxy-1H-indazol-5-yl)amino]-5,8-dihydropyrido[4′,3′:4,5]thieno[2,3-d]pyrimidin-7(6H)-yl}methanone] it was 3 nM; in that of `COc1cc2[nH]ncc2cc1Nc1ncnc2sc3c(c12)CCN(C(=O)N1C[C@@H](C)O[C@H](C)C1)C3` [Example 95, [(2R,6R)-2,6-Dimethylmorpholin-4-yl]{4-[(6-methoxy-1H-indazol-5-yl)amino]-5,8-dihydropyrido[4′,3′:4,5]thieno[2,3-d]pyrimidin-7(6H)-yl}methanone], 3 nM. Compound `COc1cc2[nH]ncc2cc1Nc1ncnc2sc3c(c12)CCN(C(=O)N1CCOC[C@H]1C)C3` [Example 96, {4-[(6-Methoxy-1H-indazol-5-yl)amino]-5,8-dihydropyrido[4′,3′:4,5]thieno[2,3-d]pyrimidin-7(6H)-yl}[(3R)-3-methylmorpholin-4-yl]methanone] had an IC50 of 3 nM. In the case of `COc1cc2[nH]ncc2cc1Nc1ncnc2sc3c(c12)CCN(C(=O)N1CCOC[C@@H]1C)C3` [Example 97, {4-[(6-Methoxy-1H-indazol-5-yl)amino]-5,8-dihydropyrido[4′,3′:4,5]thieno[2,3-d]pyrimidin-7(6H)-yl}[(3S)-3-methylmorpholin-4-yl]methanone] it was 3 nM; in that of `COc1cc2[nH]ncc2cc1Nc1ncnc2sc3c(c12)CCN(Cc1ccn(C)n1)C3` [Example 98, N-(6-Methoxy-1H-indazol-5-yl)-7-[(1-methyl-1H-pyrazol-3-yl)methyl]-5,6,7,8-tetrahydropyrido[4′,3′:4,5]thieno[2,3-d]pyrimidin-4-amine], 11 nM; in that of `COc1cc2[nH]ncc2cc1Nc1ncnc2sc3c(c12)CCN(C(=O)N(C)CCC(F)(F)F)C3` [Example 99, 4-[(6-Methoxy-1H-indazol-5-yl)amino]-N-methyl-N-(3,3,3-trifluoropropyl)-5,8-dihydropyrido[4′,3′:4,5]thieno[2,3-d]pyrimidine-7(6H)-carboxamide], 2 nM. The compound `COc1cc2[nH]ncc2cc1Nc1ncnc2sc3c(c12)CCN(C(=O)NCCC(F)(F)F)C3` [Example 100, 4-[(6-Methoxy-1H-indazol-5-yl)amino]-N-(3,3,3-trifluoropropyl)-5,8-dihydropyrido[4′,3′:4,5]thieno[2,3-d]pyrimidine-7(6H)-carboxamide] showed an IC50 of 1 nM. Against the preceding compound, the IC50 is about 2-fold lower. In the case of `COc1cc2[nH]ncc2cc1Nc1ncnc2sc3c(c12)CCN(C(=O)N1[C@@H](C)COC[C@@H]1C)C3` [Example 101, [(3S,5S)-3,5-Dimethylmorpholin-4-yl]{4-[(6-methoxy-1H-indazol-5-yl)amino]-5,8-dihydropyrido[4′,3′:4,5]thieno[2,3-d]pyrimidin-7(6H)-yl}methanone] it was 9 nM; in that of `COc1cc2[nH]ncc2cc1Nc1ncnc2sc3c(c12)CCN(C(=O)c1ccno1)C3` [Example 102, {4-[(6-Methoxy-1H-indazol-5-yl)amino]-5,8-dihydropyrido[4′,3′:4,5]thieno[2,3-d]pyrimidin-7(6H)-yl}(1,2-oxazol-5-yl)methanone], 5 nM.

`COc1cc2[nH]ncc2cc1Nc1ncnc2sc3c(c12)CCN(C(=O)c1ccn(C)n1)C3` [Example 103, {4-[(6-Methoxy-1H-indazol-5-yl)amino]-5,8-dihydropyrido[4′,3′:4,5]thieno[2,3-d]pyrimidin-7(6H)-yl}(1-methyl-1H-pyrazol-3-yl)methanone] showed an IC50 of 11 nM.

Source of the values: patent US20170107229A1, “SUBSTITUTED TETRAHYDROPYRIDOTHIENOPYRIMIDINES” (BAYER PHARMA AKTIENGESELLSCHAFT, priority 2014, published 2017).
